Data reported in US12398132B2, “Derivatives of 4-(imidazo[1,2-a]pyridin-3-yl)-n-(pyridinyl)pyrimidin-2-amine as therapeutic agents” (AUCENTRA THERAPEUTICS PTY LTD, priority 2019, dated 2025).
Positions count from the first letter of the chain named.

Columns and labels:
MV-4-11 = assay: Proliferation assay (resazurin/MTT), MV-4-11; assay type: cell-based; settings: Homo sapiens, MV4-11, read-out: 72 h Growth inhibition GI50, MV-4-11 cells
CDK4/D1 = CDK4/D1 (Homo sapiens, UniProt P11802); assay: ADP Glo kinase assay, CDK4/D1; assay type: biochemical; settings: CDK4D1; for Ki: apparent Ki calculated from Km (ATP) and IC50, read-out: CDK inhibition Ki; for remaining activity at 1 µM: compound at 1 μM (values marked *), read-out: residual enzymatic activity (%) at 1 μM*
Procedure: (§1) Inhibition of FLT3(WT), FLT3(ITD) and FLT3(D835Y) and CDKs were determined using ADP Glo Kinase assays (Promega Corporation, Madison, WI, USA). […] Similarly, kinase reaction for CDK4/D1 and CDK6/D3 was performed with reaction buffer (40 nM Tris base pH 7.5, 20 mM MgCl2, 0.4 mM DTT), 0.1 mg/ml BSA and RB-CTF substrate (retinoblastoma protein1 C-terminal fraction). For CDK9/CyclinT1, the kinase reaction was performed with the standard assay buffer and Kinase Dilution Buffer and RBER-IRStide substrate. Half-maximal inhibition (IC50) values were calculated using a 4-parameter logistic non-linear regression model with Graphpad prism (Version 6.0). Apparent inhibition constants (Ki) values were calculated from Km (ATP) and IC50 values for the respective kinases.

CDK7HMAT1 [1] = biological target: T1, CDK7HMAT1 (Homo sapiens, UniProt P50613); assay: biochemical;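 also: kinase activity measured with an ADP-Glo luminescent kinase assay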
Procedure: (§2) Inhibition of FLT3(WT), FLT3(ITD) and FLT3(D835Y) and CDKs were determined using ADP Glo Kinase assays (Promega Corporation, Madison, WI, USA). […] The kinase reactions are run for an optimised time period (FLT3-WT: 120 min, FLT3-ITD: 80 min, FLT3-D835Y: 100 min) at room temperature and then the reaction was stopped by adding 5 μL of ADP Glo reagent. […] Positive and negative controls were performed in 0.5% DMSO in the presence and absence of each FLT3 kinase, respectively. […] Half-maximal inhibition (IC50) values were calculated using a 4-parameter logistic non-linear regression model with Graphpad prism (Version 6.0). Apparent inhibition constants (Ki) values were calculated from Km (ATP) and IC50 values for the respective kinases.

CDK6/D3 = CDK6/D3 (Homo sapiens, UniProt Q00534); assay: ADP Glo kinase assay, CDK6/D3; assay type: biochemical; settings: CDK6D3; for Ki: apparent Ki calculated from Km (ATP) and IC50, read-out: CDK inhibition Ki; for remaining activity at 1 µM: compound at 1 μM (values marked *), read-out: residual enzymatic activity (%) at 1 μM*
Procedure: as §1

U937 = assay: Proliferation assay (resazurin/MTT), U937; assay type: cell-based; settings: Homo sapiens, U-937, read-out: 72 h Growth inhibition GI50, U937 cells
CDK9/CyclinT1 = CDK9/CyclinT1 (Homo sapiens, UniProt P50750); assay: ADP Glo kinase assay, CDK9/CyclinT1; assay type: biochemical; settings: CDK9T1; apparent Ki calculated from Km (ATP) and IC50; read-out: CDK inhibition Ki
CDK2E1 [2] = biological target: T2, CDK2E1 (Homo sapiens, UniProt P24941); settings: 1 µM
CDK1B [3] = biological target: T3, CDK1B (Homo sapiens, UniProt P06493); assay: biochemical
FLT3(WT) = biological target: T4, FLT3(WT) (Homo sapiens, UniProt P36888); assay: ADP Glo kinase assay, FLT3(WT); assay type: biochemical; settings: compound at 1 μM, read-out: residual enzymatic activity (%) at 1 μM
T4 sequence (P36888 27-993): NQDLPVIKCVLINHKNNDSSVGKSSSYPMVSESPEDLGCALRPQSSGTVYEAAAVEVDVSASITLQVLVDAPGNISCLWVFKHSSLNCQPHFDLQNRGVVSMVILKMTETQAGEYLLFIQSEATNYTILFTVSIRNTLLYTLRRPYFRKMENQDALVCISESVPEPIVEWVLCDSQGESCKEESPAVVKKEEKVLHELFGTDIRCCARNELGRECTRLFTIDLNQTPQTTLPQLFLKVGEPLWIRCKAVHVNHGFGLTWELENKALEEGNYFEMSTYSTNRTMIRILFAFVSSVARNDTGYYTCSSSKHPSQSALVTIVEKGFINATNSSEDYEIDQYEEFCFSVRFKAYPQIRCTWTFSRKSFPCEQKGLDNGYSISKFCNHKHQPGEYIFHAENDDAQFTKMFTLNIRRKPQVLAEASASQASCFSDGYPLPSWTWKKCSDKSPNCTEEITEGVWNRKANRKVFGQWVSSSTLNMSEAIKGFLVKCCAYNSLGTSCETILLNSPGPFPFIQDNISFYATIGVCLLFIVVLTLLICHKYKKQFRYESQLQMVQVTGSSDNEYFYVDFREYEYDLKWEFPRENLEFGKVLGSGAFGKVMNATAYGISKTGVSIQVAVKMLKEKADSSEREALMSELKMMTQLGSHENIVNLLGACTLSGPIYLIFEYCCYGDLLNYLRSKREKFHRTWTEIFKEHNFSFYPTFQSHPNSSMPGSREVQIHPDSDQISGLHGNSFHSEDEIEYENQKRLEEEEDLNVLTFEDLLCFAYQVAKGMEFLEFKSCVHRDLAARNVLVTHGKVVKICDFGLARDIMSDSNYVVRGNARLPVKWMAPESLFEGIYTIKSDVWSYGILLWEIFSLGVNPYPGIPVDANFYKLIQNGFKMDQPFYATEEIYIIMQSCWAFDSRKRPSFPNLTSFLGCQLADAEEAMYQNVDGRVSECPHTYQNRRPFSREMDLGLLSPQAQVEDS
Procedure: as §2

FLT3(D835Y) = biological target: T5, FLT3(D835Y) (Homo sapiens, UniProt P36888, D835Y); assay: ADP Glo kinase assay, FLT3(D835Y); assay type: biochemical; settings: apparent Ki calculated from Km (ATP) and IC50, read-out: FLT3 inhibition Ki
T5 sequence (P36888 27-993 D835Y): T4 sequence (P36888 27-993) with D809Y
Procedure: as §2

FLT3(ITD) = biological target: T6, FLT3(ITD) (Homo sapiens, UniProt P36888); assay: ADP Glo kinase assay, FLT3(ITD); assay type: biochemical; settings: apparent Ki calculated from Km (ATP) and IC50, read-out: FLT3 inhibition Ki
T6 sequence (P36888 1-993): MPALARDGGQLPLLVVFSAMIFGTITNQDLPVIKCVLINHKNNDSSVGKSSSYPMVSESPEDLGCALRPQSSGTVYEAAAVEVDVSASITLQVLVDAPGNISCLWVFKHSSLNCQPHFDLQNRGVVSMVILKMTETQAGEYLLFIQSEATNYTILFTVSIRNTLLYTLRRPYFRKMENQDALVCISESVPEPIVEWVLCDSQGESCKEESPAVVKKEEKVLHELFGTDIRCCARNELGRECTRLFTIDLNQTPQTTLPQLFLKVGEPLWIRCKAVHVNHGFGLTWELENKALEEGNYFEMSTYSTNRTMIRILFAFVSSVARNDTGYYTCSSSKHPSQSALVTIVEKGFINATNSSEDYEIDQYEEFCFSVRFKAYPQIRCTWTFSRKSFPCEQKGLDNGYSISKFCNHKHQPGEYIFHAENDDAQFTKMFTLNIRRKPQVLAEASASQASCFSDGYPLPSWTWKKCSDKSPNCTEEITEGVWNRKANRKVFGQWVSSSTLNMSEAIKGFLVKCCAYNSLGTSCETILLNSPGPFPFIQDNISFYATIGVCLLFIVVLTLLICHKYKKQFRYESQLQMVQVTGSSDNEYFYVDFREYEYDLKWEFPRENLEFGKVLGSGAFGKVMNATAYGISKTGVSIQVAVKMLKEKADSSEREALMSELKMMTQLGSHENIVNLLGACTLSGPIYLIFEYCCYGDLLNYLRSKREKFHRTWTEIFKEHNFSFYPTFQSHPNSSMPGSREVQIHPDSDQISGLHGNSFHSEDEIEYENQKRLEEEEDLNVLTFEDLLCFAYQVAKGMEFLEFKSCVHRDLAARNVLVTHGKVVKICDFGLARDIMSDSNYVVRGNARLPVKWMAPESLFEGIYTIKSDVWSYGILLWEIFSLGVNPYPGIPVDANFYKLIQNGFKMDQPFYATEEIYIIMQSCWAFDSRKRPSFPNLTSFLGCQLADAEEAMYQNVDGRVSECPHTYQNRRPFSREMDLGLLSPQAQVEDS
Procedure: as §2

CDK2E1 [4] = biological target: T2, CDK2E1; assay: biochemical
CDK7HMAT1 [5] = biological target: T1, CDK7HMAT1; settings: 10 µM
Procedure: as §2

CDK1B [6] = biological target: T3, CDK1B; settings: 1 µM

Sequence of CDK4/D1 (P11802 whole entry, species assumed): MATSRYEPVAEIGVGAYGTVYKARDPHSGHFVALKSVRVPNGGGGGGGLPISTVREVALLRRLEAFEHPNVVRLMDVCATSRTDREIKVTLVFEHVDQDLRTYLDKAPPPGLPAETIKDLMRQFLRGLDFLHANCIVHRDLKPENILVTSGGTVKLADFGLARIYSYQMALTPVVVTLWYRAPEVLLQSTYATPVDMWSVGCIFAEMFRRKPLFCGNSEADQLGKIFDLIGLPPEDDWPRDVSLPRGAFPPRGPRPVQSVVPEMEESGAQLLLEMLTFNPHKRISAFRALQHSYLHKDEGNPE
Sequence of CDK4/D1 (P24385 whole entry partner, species assumed): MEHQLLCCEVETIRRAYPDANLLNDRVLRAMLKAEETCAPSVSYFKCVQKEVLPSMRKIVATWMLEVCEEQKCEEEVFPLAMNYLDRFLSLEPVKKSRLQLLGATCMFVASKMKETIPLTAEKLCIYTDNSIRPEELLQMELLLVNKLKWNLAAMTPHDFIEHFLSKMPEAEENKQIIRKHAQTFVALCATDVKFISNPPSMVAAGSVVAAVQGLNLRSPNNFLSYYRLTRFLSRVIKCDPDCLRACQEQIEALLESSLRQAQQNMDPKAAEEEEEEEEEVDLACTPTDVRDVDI
T1 sequence (P50613 whole entry): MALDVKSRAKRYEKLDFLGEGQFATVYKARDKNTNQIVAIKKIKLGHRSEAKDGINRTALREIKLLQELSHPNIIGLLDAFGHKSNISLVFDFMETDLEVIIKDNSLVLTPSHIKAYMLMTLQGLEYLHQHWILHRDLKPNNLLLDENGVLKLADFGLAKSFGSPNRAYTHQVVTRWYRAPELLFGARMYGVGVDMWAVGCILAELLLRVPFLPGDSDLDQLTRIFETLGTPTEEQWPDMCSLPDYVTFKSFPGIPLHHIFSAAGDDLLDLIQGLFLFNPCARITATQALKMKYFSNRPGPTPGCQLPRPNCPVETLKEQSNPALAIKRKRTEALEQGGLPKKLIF
T1 sequence (P51946 whole entry partner): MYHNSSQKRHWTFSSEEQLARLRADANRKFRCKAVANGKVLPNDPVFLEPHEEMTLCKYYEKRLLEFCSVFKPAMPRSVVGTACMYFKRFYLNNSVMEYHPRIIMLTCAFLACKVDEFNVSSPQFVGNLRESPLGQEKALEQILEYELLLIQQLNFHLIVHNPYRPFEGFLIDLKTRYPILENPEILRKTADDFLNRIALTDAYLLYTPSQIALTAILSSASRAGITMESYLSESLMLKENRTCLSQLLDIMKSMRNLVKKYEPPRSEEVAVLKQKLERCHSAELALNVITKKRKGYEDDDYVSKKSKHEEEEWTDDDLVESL
T1 sequence (P51948 whole entry partner): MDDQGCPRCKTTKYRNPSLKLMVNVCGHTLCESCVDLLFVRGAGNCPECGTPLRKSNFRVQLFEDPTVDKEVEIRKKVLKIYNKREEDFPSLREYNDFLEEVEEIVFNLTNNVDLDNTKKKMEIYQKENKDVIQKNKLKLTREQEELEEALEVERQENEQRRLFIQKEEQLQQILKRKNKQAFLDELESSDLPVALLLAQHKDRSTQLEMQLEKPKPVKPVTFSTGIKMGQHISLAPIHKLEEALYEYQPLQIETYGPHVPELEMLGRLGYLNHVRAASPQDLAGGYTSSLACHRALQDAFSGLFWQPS
Sequence of CDK9/CyclinT1 (P50750 whole entry, species assumed): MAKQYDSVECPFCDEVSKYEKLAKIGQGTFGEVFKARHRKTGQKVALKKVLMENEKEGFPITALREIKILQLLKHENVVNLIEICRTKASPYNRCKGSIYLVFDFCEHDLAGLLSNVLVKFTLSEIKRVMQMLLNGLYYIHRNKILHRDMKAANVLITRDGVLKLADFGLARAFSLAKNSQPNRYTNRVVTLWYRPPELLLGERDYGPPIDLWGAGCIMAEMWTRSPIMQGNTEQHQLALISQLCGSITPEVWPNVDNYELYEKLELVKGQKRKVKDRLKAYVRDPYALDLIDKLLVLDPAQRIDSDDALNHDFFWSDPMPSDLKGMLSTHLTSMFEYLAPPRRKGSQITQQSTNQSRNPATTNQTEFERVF
Sequence of CDK9/CyclinT1 (O60563 whole entry partner, species assumed): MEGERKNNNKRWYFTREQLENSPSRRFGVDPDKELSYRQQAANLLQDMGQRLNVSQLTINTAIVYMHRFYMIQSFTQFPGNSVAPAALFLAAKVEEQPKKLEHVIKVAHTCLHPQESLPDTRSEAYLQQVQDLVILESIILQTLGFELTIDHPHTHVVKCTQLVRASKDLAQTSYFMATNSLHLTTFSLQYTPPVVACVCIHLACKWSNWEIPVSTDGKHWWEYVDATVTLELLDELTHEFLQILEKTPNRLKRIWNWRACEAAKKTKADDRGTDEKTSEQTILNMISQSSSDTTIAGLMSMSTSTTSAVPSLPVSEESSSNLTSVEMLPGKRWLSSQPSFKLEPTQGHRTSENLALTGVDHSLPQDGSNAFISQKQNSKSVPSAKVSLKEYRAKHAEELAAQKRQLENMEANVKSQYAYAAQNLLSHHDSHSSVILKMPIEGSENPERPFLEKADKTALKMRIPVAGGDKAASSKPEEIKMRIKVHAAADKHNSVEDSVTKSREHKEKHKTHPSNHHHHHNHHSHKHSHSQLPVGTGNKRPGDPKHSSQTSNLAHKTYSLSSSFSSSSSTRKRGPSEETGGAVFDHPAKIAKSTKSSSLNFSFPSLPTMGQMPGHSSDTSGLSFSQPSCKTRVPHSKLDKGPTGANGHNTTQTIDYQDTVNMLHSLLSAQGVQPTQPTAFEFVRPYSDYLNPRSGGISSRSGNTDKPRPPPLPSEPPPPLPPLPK
T3 sequence (P06493 whole entry): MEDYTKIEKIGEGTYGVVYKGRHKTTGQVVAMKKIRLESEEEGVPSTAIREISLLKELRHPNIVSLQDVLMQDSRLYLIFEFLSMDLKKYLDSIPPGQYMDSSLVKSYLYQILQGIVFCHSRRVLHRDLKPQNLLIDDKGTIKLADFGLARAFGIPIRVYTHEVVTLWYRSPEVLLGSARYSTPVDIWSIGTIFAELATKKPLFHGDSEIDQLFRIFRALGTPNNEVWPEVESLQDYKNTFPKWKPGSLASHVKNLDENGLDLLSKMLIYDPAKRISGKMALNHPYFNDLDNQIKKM
T3 sequence (P14635 whole entry partner): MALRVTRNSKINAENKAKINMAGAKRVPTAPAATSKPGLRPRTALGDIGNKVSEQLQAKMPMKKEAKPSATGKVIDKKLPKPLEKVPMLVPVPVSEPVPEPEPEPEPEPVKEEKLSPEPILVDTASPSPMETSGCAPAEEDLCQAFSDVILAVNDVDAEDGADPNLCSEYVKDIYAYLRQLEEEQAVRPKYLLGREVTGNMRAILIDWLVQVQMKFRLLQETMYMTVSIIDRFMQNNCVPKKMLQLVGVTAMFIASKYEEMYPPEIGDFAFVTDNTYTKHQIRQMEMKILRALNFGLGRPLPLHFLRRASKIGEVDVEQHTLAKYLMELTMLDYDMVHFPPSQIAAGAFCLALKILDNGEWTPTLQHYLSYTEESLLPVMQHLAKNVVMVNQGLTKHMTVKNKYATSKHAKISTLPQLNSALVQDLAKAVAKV
Sequence of CDK6/D3 (Q00534 whole entry, species assumed): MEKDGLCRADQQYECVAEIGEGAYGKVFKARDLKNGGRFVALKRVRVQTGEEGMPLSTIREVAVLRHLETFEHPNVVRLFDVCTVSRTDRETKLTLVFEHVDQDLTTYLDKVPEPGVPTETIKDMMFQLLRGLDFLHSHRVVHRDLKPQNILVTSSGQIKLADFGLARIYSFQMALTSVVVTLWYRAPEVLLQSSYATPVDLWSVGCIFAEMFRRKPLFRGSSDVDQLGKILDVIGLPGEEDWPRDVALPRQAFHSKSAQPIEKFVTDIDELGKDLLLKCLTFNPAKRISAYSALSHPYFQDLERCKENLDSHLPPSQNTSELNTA
Sequence of CDK6/D3 (P30281 whole entry partner, species assumed): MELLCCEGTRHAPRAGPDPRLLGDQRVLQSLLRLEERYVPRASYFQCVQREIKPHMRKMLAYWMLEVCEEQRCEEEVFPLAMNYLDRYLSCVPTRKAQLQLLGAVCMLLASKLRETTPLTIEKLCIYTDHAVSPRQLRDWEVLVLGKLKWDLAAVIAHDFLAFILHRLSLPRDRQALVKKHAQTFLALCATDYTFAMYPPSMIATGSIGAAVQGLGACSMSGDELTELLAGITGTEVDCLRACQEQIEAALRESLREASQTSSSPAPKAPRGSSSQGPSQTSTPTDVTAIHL

Row | Compound | GI50 (MV-4-11) [nM] | Ki (CDK4/D1) [nM] | Ki (CDK7HMAT1 [1]) [nM] | Ki (CDK6/D3) [nM] | GI50 (U937) [nM] | Ki (CDK9/CyclinT1) [nM] | activity (CDK2E1 [2]) [%] | Ki (CDK1B [3]) [nM] | remaining activity at 1 µM (FLT3(WT)) [%] | Ki (FLT3(D835Y)) [nM] | Ki (FLT3(ITD)) [nM] | Ki (CDK2E1 [4]) [nM] | activity (CDK7HMAT1 [5]) [%] | remaining activity at 10 µM (CDK6/D3; compound at 10 μM, read-out: residual enzymatic activity (%) at 10 μM) [%] | activity (CDK1B [6]) [%] | remaining activity at 1 µM (CDK4/D1) [%] | remaining activity at 1 µM (CDK6/D3) [%]
1 | c1ccn2c(-c3ccnc(Nc4ccc(N5CCNCC5)cn4)n3)cnc2c1 [Cmpd 1, 4-(Imidazo[1,2-a]pyridin-3-yl)-N-(5-(piperazin-1-yl)pyridin-2-yl)pyrimidin-2-amine] | 9 | 116 | 1190 | 900 | 497 | 37 | 69 | 1340 | – | – | – | – | – | – | – | – | –
2 | CN1CCN(c2ccc(Nc3nccc(-c4cnc5ccccn45)n3)nc2)CC1 [Cmpd 2, 4-(Imidazo[1,2-a]pyridin-3-yl)-N-(5-(4-methylpiperazin-1-yl)pyridin-2-yl)pyrimidin-2-amine] | 35 | 155 | 1700 | 1050 | 504 | 85 | – | 1990 | 33 | 49 | 235 | – | – | – | – | – | –
3 | c1ccc(Nc2nccc(-c3cnc4ccccn34)n2)nc1 [Cmpd 7, 4-(Imidazo[1,2-a]pyridin-3-yl)-N-(pyridin-2-yl)pyrimidin-2-amine] | 124 | 218 | – | 370 | 512 | 41 | – | 148 | 34 | 17 | 15 | 84 | 43 | – | – | – | –
4 | CC(=O)N1CCN(c2ccc(Nc3nccc(-c4cnc5ccc(-c6cccs6)cn45)n3)nc2)CC1 [Cmpd 17, 1-(4-(6-((4-(6-(Thiophen-2-yl)imidazo[1,2-a]pyridin-3-yl)pyrimidin-2-yl)amino)pyridin-3-yl)piperazin-1-yl)ethan-1-one] | 2 | 340 | 148 | – | 690 | 427 | 52 | > 500 | – | – | – | – | – | 76 | – | – | –
5 | CC(=O)N1CCN(c2ccc(Nc3nccc(-c4cnc5ccc(-c6ccoc6)cn45)n3)nc2)CC1 [Cmpd 25, 1-(4-(6-((4-(6-(Furan-3-yl)imidazo[1,2-a]pyridin-3-yl)pyrimidin-2-yl)amino)pyridin-3-yl)piperazin-1-yl)ethan-1-one] | 5 | – | 186 | – | 765 | 71 | 40 | – | – | – | – | – | – | – | 95 | 75 | 52
6 | CC(=O)N1CCN(c2ccc(Nc3ncc(F)c(-c4cnc5ccc(C)cn45)n3)nc2)CC1 [Cmpd 31, 1-(4-(6-((5-Fluoro-4-(6-methylimidazo[1,2-a]pyridin-3-yl)pyrimidin-2-yl)amino)pyridin-3-yl)piperazin-1-yl)ethan-1-one] | 5 | – | – | – | 19100 | 308 | – | – | – | – | – | 301 | – | – | 50 | 37 | 38
7 | Fc1ccc(Nc2nccc(-c3cnc4ccccn34)n2)nc1 [Cmpd 51, N-(5-Fluoropyridin-2-yl)-4-(imidazo[1,2-a]pyridin-3-yl)pyrimidin-2-amine] | 72 | – | – | – | 350 | – | – | – | – | – | – | 116 | – | – | – | – | –
8 | CN1CCN(c2ccc(Nc3nccc(-c4cnc5ccc(-c6cn[nH]c6)cn45)n3)nc2)CC1 [Cmpd 67, 4-(6-(1H-Pyrazol-4-yl)imidazo[1,2-a]pyridin-3-yl)-N-(5-(4-methylpiperazin-1-yl)pyridin-2-yl)pyrimidin-2-amine] | 17 | – | – | – | 18 | 41 | – | – | – | – | 11 | 197 | – | – | – | – | –
